The target in one test is T1, CDK2/cyclin A (Homo sapiens, UniProt P24941).
T1 construct: made in house; host or cells: insect cells infected with baculoviruses
Description: Inhibitory activity against CDK2/cyclin A enzyme (GST-RB phosphorylation, P32-γ-ATP, scintillation counting). It counts as biochemical. The following applies: 100 μM ATP, GST-RB substrate, 30° C. 30 minutes. How it is done: (§1) Analysis of inhibitory activity against CDK2/cyclin A and CDK4/cyclin D1 enzyme.
(§2) The inhibitory activity against CDK2 is measured by referring to Kitagawa, M. et al., Oncogene 9:2549, 1994 and the inhibitory activity against CDK4 is measured by referring to Carlson, B. A. et al., Cancer Research 56:2473,1996.
(§3) As for CDK2, either the extract from the insect cell infected both with baculovirus which expresses CDK2 gene and baculovirus which expresses cyclin A gene or the active enzyme which had been purified therefrom was used. CDK4 enzyme was also obtained from the insect cell infected both with baculovirus expressing CDK4 gene and baculovirus expressing cyclin D1 gene. As the substrate for CDK2, either histon H1 or Rb protein was used. Rb protein was also used as the substrate for CDK4.
(§4) Specifically the activities of enzymes CDK2/cyclin A and CDK4/cyclin D1 were determined according to the following procedure.
(§5) 100 ng of enzyme was reacted in a total 1000 μl of 20 mM Tris (pH 8.0), 100 mM NaCl, 10 mM MgCl2 buffer solution containing 20 μg of GST-RB protein, 100 μM of ATP and 5 μCi of P32-γ-ATP at 30° C. for 30 minutes. Then, the enzyme reaction was stopped by adding EDTA to a concentration of 20 mM. Subsequently, 30 μl of 50% glutathione bead (purchased from Pharmacia) was added to attach GST-RB to the bead, which was washed three times with 20mM Tris (pH 8.0), 100 mM NaCl, 10 mM EDTA solution, and then scintillation counting was carried out. To analyze the inhibitory activity of the compound, the inhibitor having a proper concentration was added to the enzyme reaction solution, and then the enzyme activity was measured according to the above method.
(§6) The inhibitory activity of the compound of formula (1) according to the present invention against CDK2 and CDK4 is represented as IC50 value. The compounds which are not included in Examples(compound 63, 64, 65 and 66) were synthesized and purified according to the same procedure as examples, and then IC50 thereof was measured.

The target of the next test is T2, CDK4/cyclin D1 (Homo sapiens, UniProt P11802).
T2 construct: made in house; host or cells: insect cells infected with baculoviruses
Put plainly: Inhibitory activity against CDK4/cyclin D1 enzyme (GST-RB phosphorylation, P32-γ-ATP, scintillation counting). The class given is biochemical. Conditions: CDK4/cyclin D1, 100 μM ATP, GST-RB substrate, 30° C. 30 minutes. The protocol: as §1, §2, §3, §4, §5, §6

T2 sequence (P11802 whole entry, species assumed): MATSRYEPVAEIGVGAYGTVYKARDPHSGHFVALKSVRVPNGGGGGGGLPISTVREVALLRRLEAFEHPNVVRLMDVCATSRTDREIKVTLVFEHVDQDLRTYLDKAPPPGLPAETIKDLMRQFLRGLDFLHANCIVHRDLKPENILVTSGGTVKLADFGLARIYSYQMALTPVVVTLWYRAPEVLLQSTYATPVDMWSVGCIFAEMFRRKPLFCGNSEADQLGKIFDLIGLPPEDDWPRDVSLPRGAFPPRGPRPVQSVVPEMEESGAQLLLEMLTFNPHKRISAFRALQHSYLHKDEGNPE
T2 sequence (P24385 whole entry partner, species assumed): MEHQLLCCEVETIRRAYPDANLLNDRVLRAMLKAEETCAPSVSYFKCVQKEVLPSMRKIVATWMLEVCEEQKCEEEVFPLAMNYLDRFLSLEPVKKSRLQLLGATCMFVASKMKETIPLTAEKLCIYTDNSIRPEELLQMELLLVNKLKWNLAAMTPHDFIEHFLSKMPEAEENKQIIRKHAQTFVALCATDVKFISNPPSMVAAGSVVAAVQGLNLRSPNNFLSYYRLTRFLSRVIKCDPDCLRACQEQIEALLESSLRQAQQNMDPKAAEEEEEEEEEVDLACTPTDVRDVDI

For `O=c1c(O)c(-c2ccc(O)c(O)c2)oc2ccc(NS(=O)(=O)c3cccc(Br)c3)cc12` [Compound 30, 3-bromo-N-[2-(3,4-dihydroxyphenyl)-3-hydroxy-4-oxo-4H-chromen-6-yl]benzenesulfonamide], the IC50 against CDK2/cyclin A turned out to be 14 µM; against CDK4/cyclin D1 it was 2.1 µM.
For `COc1cccc2oc(-c3ccc(O)c(O)c3)c(O)c(=O)c12` [Compound 27, 2-(3,4-dihydroxyphenyl)-3-hydroxy-5-methoxy-4H-chromen-4-one], in that order: less than 10 µM and less than 10 µM.
The corresponding values for `O=C(Nc1ccc2oc(-c3ccc(O)c(O)c3)c(O)c(=O)c2c1)c1ccc(Cl)cc1` [Compound 53, 4-chloro-N-[2-(3,4-dihydroxyphenyl)-3-hydroxy-4-oxo-4H-chromen-6-yl]benzamide] are more than 100 µM and 5.6 µM.
The corresponding values for `O=c1c(O)c(-c2ccc(O)c(O)c2)oc2ccc(NS(=O)(=O)CCCCl)cc12` [Compound 41, 3-chloro-N-[2-(3,4-dihydroxyphenyl)-3-hydroxy-4-oxo-4H-chromen-6-yl]-1-propanesulfonamide] are 20 µM and 6.5 µM.
`O=C(N1CCc2ccc(S(=O)(=O)Nc3ccc4oc(-c5ccc(O)c(O)c5)c(O)c(=O)c4c3)cc2C1)C(F)(F)F` [Compound 44, N-[2-(3,4-dihydroxyphenyl)-3-hydroxy-4-oxo-4H-chromen-6-yl]-2-(2,2,2-trifluoroacetyl)-1,2,3,4-tetrahydro-7-isoquinolinesulfonamide]: the values for the IC50 against CDK2/cyclin A and at CDK4/cyclin D1 were 4.1 µM and 2.3 µM, respectively.
The corresponding values for `O=C(Nc1cccc(Br)c1)Nc1ccc2oc(-c3ccc(O)c(O)c3)c(O)c(=O)c2c1` [Compound 58, N-(3-bromophenyl)-N′-[2-(3,4-dihydroxyphenyl)-3-hydroxy-4-oxo-4H-chromen-6-yl]urea] are 4.2 µM and 4.2 µM.
For `CN1CCN(c2ccc(S(=O)(=O)Nc3ccc4oc(-c5ccc(O)c(O)c5)c(O)c(=O)c4c3)cc2N)CC1` [Compound 50, 3-amino-N-[2-(3,4-dihydroxyphenyl)-3-hydroxy-4-oxo-4H-chromen-6-yl]-4-(4-methyl-1-piperazinyl)benzenesulfonamide], in that order: more than 200 µM and 30 µM.
In the case of `Cc1cc2oc(-c3ccc(O)c(O)c3)c(O)c(=O)c2cc1C` [Compound 26, 2-(3,4-dihydroxyphenyl)-6,7-dimethyl-3-hydroxy-4H-chromen-4-one], the IC50 at CDK2/cyclin A and on CDK4/cyclin D1 was less than 10 µM each time.
As to `COc1ccc(-c2oc3ccccc3c(=O)c2O)cc1` [Compound 11, 3-hydroxy-2-(4-methoxy-phenyl)-chromen-4-one], the IC50 on CDK2/cyclin A and at CDK4/cyclin D1 was more than 100 µM each time.
As for `O=C(Nc1ccccc1)Nc1ccc2oc(-c3ccc(O)c(O)c3)c(O)c(=O)c2c1` [Compound 56, N-[2-(3,4-dihydroxyphenyl)-3-hydroxy-4-oxo-4H-chromen-6-yl]-N′-phenylurea], the IC50 was 5 µM on CDK2/cyclin A and 4.2 µM against CDK4/cyclin D1.
The corresponding values for `COc1ccc2oc(-c3ccc4c(c3)OCO4)c(O)c(=O)c2c1` [Compound 5, 2-(benzo[1,3]dioxol-5-yl)-3-hydroxy-6-methoxy-chromen-4-one] are more than 100 µM and more than 100 µM.
For `O=c1c(O)c(-c2ccc(O)c(O)c2)oc2c(F)cc(F)cc12` [Compound 21, 6,8-difluoro-2-(3,4-dihydroxyphenyl)-3-hydroxy-4H-chromen-4-one], in that order: less than 10 µM and less than 10 µM.
The corresponding values for `COc1ccc(-c2oc3cc(OC)ccc3c(=O)c2O)cc1` [Compound 7, 3-hydroxy-7-methoxy-2-(4-methoxy-phenyl)-chromen-4-one] are more than 100 µM and more than 100 µM.
Take `O=C(Nc1ccc2oc(-c3ccc(O)c(O)c3)c(O)c(=O)c2c1)Nc1ccc(Cl)cc1Cl` [Compound 59, N-(2,4-dichlorophenyl)-N′-[2-(3,4-dihydroxyphenyl)-3-hydroxy-4-oxo-4H-chromen-6-yl]-urea]: the IC50 on CDK2/cyclin A amounted to 20 µM; at CDK4/cyclin D1, 10 µM.
On to `COc1ccc2c(=O)c(O)c(-c3ccc(O)c(O)c3)oc2c1O` [Compound 24, 2-(3,4-dihydroxyphenyl)-3,8-dihydroxy-7-methoxy-4H-chromen-4-one], for which the IC50 against CDK2/cyclin A and against CDK4/cyclin D1 was less than 10 µM throughout.
For `O=c1c(O)c(-c2ccc(O)c(O)c2)oc2cc(O)ccc12` [Compound 64, 2-(3,4-dihydroxyphenyl)-3,7-dihydroxy-4H-chromen-4-one], the IC50 at CDK2/cyclin A is less than 5 µM; at CDK4/cyclin D1 it was less than 10 µM.
For `O=c1c(O)c(-c2ccc(O)c(O)c2)oc2c(Cl)cc(Cl)cc12` [Compound 19, 6,8-dichloro-2-(3,4-dihydroxyphenyl)-3-hydroxy-4H-chromen-4-one], in that order: less than 10 µM and less than 10 µM.
In the case of `O=C(O)c1ccc(S(=O)(=O)Nc2ccc3oc(-c4ccc(O)c(O)c4)c(O)c(=O)c3c2)cc1` [Compound 45, 4-({[2-(3,4-dihydroxyphenyl)-3-hydroxy-4-oxo-4H-chromen-6-yl]amino}sulfonyl)benzoic acid], the IC50 on CDK2/cyclin A amounted to 28.2 µM; against CDK4/cyclin D1, 6 µM.
The corresponding values for `O=c1c(O)c(-c2ccc(O)c(O)c2)oc2c(Br)cc(Br)cc12` [Compound 20, 6,8-Dibromo-2-(3,4-dihydroxyphenyl)-3-hydroxy-4H-chromen-4-one] are less than 5 µM and less than 5 µM.
For `CN(C)c1cccc2c(S(=O)(=O)Nc3ccc4oc(-c5ccc(O)c(O)c5)c(O)c(=O)c4c3)cccc12` [Compound 32, N-[2-(3,4-dihydroxyphenyl)-3-hydroxy-4-oxo-4H-chromen-6-yl]-5-(dimethylamino)-1-naphthalenesulfonamide], in that order: 35.5 µM and 4.2 µM.
The corresponding values for `O=c1c(O)c(-c2ccc(O)c(O)c2)oc2c(O)c(O)ccc12` [Compound 66, 2-(3,4-dihydroxyphenyl)-3,7,8-trihydroxy-4H-chromen-4-one] are less than 10 µM and less than 10 µM.
On to `O=C(Nc1ccc(Br)cc1)Nc1ccc2oc(-c3ccc(O)c(O)c3)c(O)c(=O)c2c1` [Compound 55, N-(4-bromophenyl)-N′-[2-(3,4-dihydroxyphenyl)-3-hydroxy-4-oxo-4H-chromen-6-yl]urea], for which the figures for the IC50 against CDK2/cyclin A and against CDK4/cyclin D1 were 1.3 µM and 0.7 µM, respectively.
For `O=c1c(O)c(-c2ccc(O)c(O)c2)oc2ccc(Br)cc12` [Compound 13, 6-bromo-2-(3,4-dihydroxyphenyl)-3-hydroxy-4H-chromen-4-one], in that order: less than 5 µM and less than 5 µM.
Consider `O=c1c(O)c(-c2ccc(O)c(O)c2)oc2ccc(NS(=O)(=O)c3ccc(-c4ccccn4)s3)cc12` [Compound 37, N-[2-(3,4-dihydroxyphenyl)-3-hydroxy-4-oxo-4H-chromen-6-yl]-5-(2-pyridinyl)-2-thiophenesulfonamide], for which the IC50 at CDK2/cyclin A was found to be 12.5 µM; against CDK4/cyclin D1 it was 4.2 µM.
For `COc1cccc2oc(-c3ccc4c(c3)OCO4)c(O)c(=O)c12` [Compound 4, 2-(benzo[1,3]dioxol-5-yl)-3-hydroxy-5-methoxy-chromen-4-one], in that order: more than 100 µM and more than 100 µM.

For the origin of these results see patent US6500846B1, “CDK inhibitors having flavone structure” (LG Chemical, Ltd., priority 1998, dated 2002).
